In PubChem BioAssay (NCI):
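Results reflect a 48-hour exposure of cells in 96-well plates to compound at five concentrations. TGI denotes the concentration required for complete inhibition of growth.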

Key:
Test in all cases: NCI-60 cell line screen, 48 h
M14 melanoma = test system: M14 melanoma
NCI-H522 lung = test system: NCI-H522 lung
RXF 393 renal = test system: RXF 393 renal
SK-MEL-2 melanoma = test system: SK-MEL-2 melanoma
CAKI-1 renal = test system: CAKI-1 renal
HS 578T breast = test system: HS 578T breast
TK-10 renal = test system: TK-10 renal
HOP-62 NSCLC = test system: HOP-62 NSCLC
NCI-H23 lung = test system: NCI-H23 lung
SK-OV-3 ovarian = test system: SK-OV-3 ovarian

| Compound | TGI (M14 melanoma) [µM] | TGI (NCI-H522 lung) [µM] | TGI (RXF 393 renal) [µM] | TGI (SK-MEL-2 melanoma) [µM] | TGI (CAKI-1 renal) [µM] | TGI (HS 578T breast) [µM] | TGI (TK-10 renal) [µM] | TGI (HOP-62 NSCLC) [µM] | TGI (NCI-H23 lung) [µM] | TGI (SK-OV-3 ovarian) [µM] |
| --- | --- | --- | --- | --- | --- | --- | --- | --- | --- | --- |
| Cc1ccc(/C=C2\CN(C)CC3C(c4ccc(C)cc4)=C(C#N)C(=O)NC23)cc1 (stereo not given) | > 50 | > 50 | > 50 | > 50 | > 50 | > 50 | > 50 | > 50 | > 50 | > 50 |
| O=C(c1ccc(Cl)cc1Cl)N(Cc1cccnc1)C(=S)N(Cc1cccnc1)C(=O)c1ccc(Cl)cc1Cl | 9.26 | 9.8 | 33.2 | 13.7 | 34.4 | 66.4 | 8.7 | 7.12 | 44.6 | 37.1 |
| N#Cc1cccc(C2ON=C(c3ccc([N+](=O)[O-])cc3)N2C23CC4CC(CC(C4)C2)C3)c1 (stereo not given) | > 100 | > 100 | > 100 | > 100 | > 100 | > 100 | > 100 | > 100 | > 100 | > 100 |
| O=S(=O)(c1cc(Cl)ccc1Cl)N1CCN(c2ccc(Cl)c(Cl)c2)CC1 | > 100 | 56.5 | 52.2 | – | 45.3 | > 100 | 54 | 39.6 | > 100 | – |
| COC(=O)c1ccc2c(c1)CC1(C2)Cc2cc3c(c(C(=O)OC)c2C1)CCCC3 (stereo not given) | – | > 100 | > 100 | – | > 100 | > 100 | > 100 | > 100 | > 100 | > 100 |
| Cc1cc(C)c(S(=O)(=O)N[C@@H](/C=C(\Br)CO)C(C)C)c(C)c1 | 91.3 | 37 | 63.3 | 33.7 | > 100 | 54.5 | > 100 | > 100 | > 100 | > 100 |
| COc1c(Cl)ccc(Cl)c1C(=O)NNC(=O)c1c(Cl)c(Cl)c(Cl)c(Cl)c1-c1nc2ccc(C(=O)c3ccccc3)cc2[nH]1 | > 100 | > 100 | > 100 | > 100 | > 100 | > 100 | > 100 | > 100 | > 100 | > 100 |
| C[C@H](CCC1=NCCN1)[C@H]1CC[C@H]2[C@@H]3[C@H](O)C[C@@H]4C[C@H](O)CC[C@]4(C)[C@H]3CC[C@]12C | 28.6 | 28.5 | 31.6 | 29.9 | 40.9 | 28.5 | 26.7 | 29.7 | 27.3 | 33.1 |
| CC(=O)Oc1ccccc1[C@H]1CC(=O)C[C@H](c2ccccc2OC(C)=O)C12C(=O)c1ccccc1C2=O | 70.9 | 92.8 | 93.4 | 66.2 | > 100 | > 100 | – | > 100 | 90.5 | > 100 |
| CN(C)CCN1C(=O)CC[C@@]2(C)C1=CC[C@@H]1[C@@H]2CC[C@@]2(C)[C@H]1CC[C@]2(C)O | > 100 | > 100 | > 100 | > 100 | > 100 | > 100 | > 100 | > 100 | > 100 | > 100 |
| O=C(NCCN1C(=O)CN=C(c2ccc(Cl)cc2)c2cc(Cl)ccc21)OCc1ccccc1 | 34.9 | 49.9 | 23.8 | 36 | 31.9 | 40.7 | 37.3 | 38.2 | 33.8 | > 100 |
